According to patent US9428540B2, “Fatty acid esters of glucocorticoids as anti-inflammatory and anti-cancer agents” (priority 2007, dated 2016):
Like-named read-outs stand apart in the source and are kept apart here.

Columns and labels:
[1] = test system: GM-CSF release; assay: Inhibition of IL-1β-stimulated GM-CSF release in A549 TRE cells; assay type: cell-based; conditions: for IC50: IL-1β-stimulated, 24 hours exposure; for fold more potent inhibition of GM-CSF release compared to fluticasone propionate: versus fluticasone propionate
Description: IL-1β-stimulation causes an increase in granulocyte-macrophage colony-stimulating factor (GM-CSF) release after 24 hours in A549 TRE (AP-1 regulation) cells. Inhibition of the GM-CSF release is measured after 24 hours exposure to a test compound.

[2] = test system: GRE-luciferase; assay: Induction of GRE-luciferase activity in stably transfected A549 GRE-luciferase cells; assay type: cell-based
[3] = test system: LUC reporter gene under the control of the PPARα 5′-flanking and promoter region; assay: LUC reporter gene activity in transiently transfected COS-1 cells (pMT-hGR); assay type: cell-based, Monkey; set-up: gene activation less than fluticasone propionate / luciferase activity/β-galactosidase (in percent (%) of Fluticasone propionate): concentration or dose not given beside the values; conditions: for luciferase activity/β-galactosidase (in percent (%) of Fluticasone propionate): COS-1 cells, harvested after 72 h
Description: Monkey kidney COS-1 cells (ATCC CRL 1650) were grown in Dulbecco's modified Eagle's medium (Gibco BRL, Grand Island, N.Y.) as described elsewhere (9). Transient transfections of COS-1 cells were performed as described elsewhere (10). The cells were plated at a density of 2×10^5 cells/well. Each well received 5 μg test plasmid, 5 μg β-galactosidase control plasmid as an internal control and either 2 μg expression plasmid, pMT-hGR or pGL3-basic as carrier. Plasmid details: The mouse PPARα gene is described elsewhere (11). Vectors expressing the LUC reporter gene under the control of the PPARα5′-flanking and promoter region were constructed in the pGL3-LUC vector (Promega). The PPARα 5′-flanking sequence between −2800 bp and +100 bp was cloned into NheI digested pGL3-LUC to generate the PPAR (−2800/+100) LUC plasmid Each transfection was performed in triplicates. The cells were transfected 24 h after plating together with fresh medium containing ligand. After 72 h cells were harvested, cytosol extracts were prepared and LUC activities were measured according to the Promega protocol. Results were normalized against β-galactosidase activities measured by incubating 100 μl extract with 0.28 mg o-nitrophenyl-D-galactoside (ONPG) in 50 mM phosphate buffer pH 7.0, 10 mM KCl, 1 mM MgCl2 for 30 min at 30° C. and reading absorbance at 420 nm.

[4] = test system: THP-1 cells; assay: CellTiter 96 Non-Radioactive cell proliferation (MTS) assay, 48 h; assay type: cell-based, human; conditions: for IC50: THP1 cells, 48 hours incubation, read-out: THP1 cells, IC50 μM ± SD
Description: (§1) The U937 and THP-1 cell lines were seeded, 20 000 cells per well, in 96-well-plates. 50 μl cell culture medium was added to each well. At the same time test compounds were added in 5 different concentrations and incubated for 48 hours. The CellTiter 96® Non-Radioactive cell proliferation assay (Promega) was used to study the cytotoxicity of test compounds in these cells. This assay is a colorimetric method for determining the number of viable cells in proliferation or chemosensitivity assays. It is composed of solutions of a novel tetrazolium compound (3-(4,5-dimethylthiazol-2-yl)-5-(3-carboxymethoxyphenyl)-2-(4-sulfophenyl)-2H-tetrazolium, inner salt; MTS) and an electron coupling reagent (phenazine methosulfate; PMS). MTS is bioreduced by cells into a formazan product that is soluble in tissue culture medium. The absorbance of the formazan at 490 nm can be measured directly from 96 well assay plates without additional processing. The quantity of formazan product as measured by the amount of 490 nm absorbance is directly proportional to the number of living cells in culture (IC50 values). The test compounds were fluticasone propionate and fluticasone elaidic acid derivative.

[5] = test system: U937 cells; assay: as above; assay type: cell-based, human; conditions: for IC50: read-out: U937 cells, IC50 μM ± SD
Description: as §1

[6] = listed as fluticasone elaidic acid ester derivative

IC50 ([1]; Homo sapiens) | EC50 ([2]; Homo sapiens, read-out: EC50 of induction of GRE-luciferase reporter activity) | IC50 ([4]; Homo sapiens, THP-1) | IC50 ([5]; Homo sapiens, U-937, 48 hours incubation) | Compound | IC50 [1] | fold more potent inhibition of GM-CSF release compared to fluticasone propionate [1] | fold more potent inhibition of GM-CSF release compared to fluticasone propionate ([1]; listed as flucticasone elaidic acid ester derivative) | fold more potent inhibition of GM-CSF release compared to fluticasone propionate [1, 6] | effect on GRE-luciferase activity [2] | luciferase activity/β-galactosidase (in percent (%) of Fluticasone propionate) ([3]; listed as Fluticasone elaidic acid ester derivative) | luciferase activity/β-galactosidase (in percent (%) of Fluticasone propionate) [3, 6] | gene activation less than fluticasone propionate ([3]; activation as a measure for side effects) | fold decrease in side effects (activation of GRE elements) ([3]; versus fluticasone propionate) | IC50 [4] | IC50 ([5]; 48 hours incubation) | luciferase activity/β-galactosidase (in percent (%) of Fluticasone propionate) [3] | activity in THP1 cells (resistance) ([4]; up to 100 μM) | activity in U937 cells (resistance) ([5]; up to 100 μM) | luciferase activity/β-galactosidase (in percent (%) of Fluticasone propionate) ([3]; listed as flumethasone elaidic acid ester derivative)
– | – | – | – | CCCCCCCCC=CCCCCCCCC(=O)OC1(C(=O)SCF)C(C)CC2C3CC(F)C4=CC(=O)C=CC4(C)C3(F)C(O)CC21C (centres unmarked) [Fluticasone elaidic acid derivative] | 0.014 nM | 22 fold | more than 20 fold | 22 fold | lack of effect | 15% | 15% | 85% | 7 fold | 10 µM | 1 µM | – | – | – | –
0.31 nM | 0.51 nM | > 100 µM | > 100 µM | CCC(=O)O[C@]1(C(=O)SCF)[C@H](C)C[C@H]2[C@@H]3C[C@H](F)C4=CC(=O)C=C[C@]4(C)[C@@]3(F)[C@@H](O)C[C@@]21C [Fluticasone propionate, reference compound] | – | – | – | – | – | – | – | – | – | – | – | 100% | no activity seen up to 100 μM | no activity seen up to 100 μM | –
– | – | – | – | 6α,9α-Difluoro-16α-elaidoyloxy-11β-hydroxy-16α-methyl-3-oxoandrosta-1,4-diene-17β-carboxylic acid | – | – | – | – | – | – | – | – | – | – | – | 2% | – | – | 2%
